Assay results from patent US20090048291A1, “Novel Piperidine-4-Acetic Acid Derivatives and Their Use” (Euroscreen S.A., priority 2007, published 2009).
Like-named read-outs stand apart in the source and are kept apart here.

Key:
[1] = system: recombinant and non-replicative HIV virus coding for the firefly luciferase; assay: Inhibitory effect on HIV infection to MAGI-CCR5 cells (HIV-luciferase assay); type: cell-based
Experimental: The inhibitory activity of the compounds of the invention on HIV infection is measured on the human MAGI R5 recombinant cell line coexpressing the human CCR5 receptor and CD4 at their extracellular membrane. MAGI R5 cells are plated in black view plates at 10,000 cells/well and incubated with the appropriate concentrations of the compounds of the invention during 1 hour. This is followed by a 24 hours infection period with the recombinant and non-replicative HIV virus coding for the firefly luciferase (Bona et al., 2006, Antimicrob. Agents Chemother. 50: 3407-3417). The inhibitory effect of the tested compound on virus entry in MAGI R5 cells is measured by a reduction of luciferase signal (TopCount-NXT reader (Packard) and detection luciferase kit: Steadylite HTS assay kit (Perkin Elmer)) in the presence of the compound of the invention relative to the maximum signal obtained from cells infected with the virus without any added compound. The results of the tested compounds are reported as the concentration of compound required to inhibit 50% (IC50) of the maximum luciferase signal.

CCR5 receptor [2] = molecular target: T1, CCR5 receptor (Homo sapiens, UniProt P51681); assay: 125I-MIP-1β binding competition assay; parameters: expressed in transfected cells; host or cells: Chinese hamster ovary recombinant cells (membranes)
Experimental: The ability of the compounds of the invention to inhibit the binding of […] was assessed by an in vitro radioligand binding assay. Membranes were prepared from Chinese hamster ovary recombinant cells which express the human CCR5 receptor. The membranes were incubated with 0.05 nM ^125I-MIP-1β in a HEPES 25 mM/CaCl2 5 mM/MgCl2 1 mM buffer and various concentrations of the compounds of the invention. The amount of iodinated MIP-1β bound to the receptor was determined after filtration by the quantification of membrane associated radioactivity using the TopCount-NXT reader (Packard). Competition curves were obtained for compounds of the invention and the concentration of compound which displaced 50% of bound radioligand (IC50) was calculated

CCR5 receptor [3] = molecular target: T1, CCR5 receptor; assay: Calcium flux aequorin-based assay (agonist response); type: cell-based; parameters: expressed in transfected cells; host or cells: Chinese hamster ovary cells coexpressing apoaequorin and Gα16; settings: for EC50: Chinese hamster ovary cells expressing the CCR5 receptor, apoaequorin and Gα16, read-out: Aequorin/Ca++ assay EC50
Experimental: The aequorin assay uses the responsiveness of aequorin to intracellular calcium release induced by the activation of G Protein Coupled Receptors (Stables et al., 1997, Anal. Biochem. 252:115-126; Detheux et al., 2000, J. Exp. Med., 192 1501-1508). Briefly, Chinese hamster ovary cells expressing the CCR5 receptor are transfected to coexpress apoaequorin and Gα16. Cells are incubated with 5 μM Coelenterazine H (Promega) overnight at room temperature, and resuspended at a concentration of 0.1×10^6 cells/ml. Cells are then mixed with test agonist compounds and light emission by the aequorin is recorded with a luminometer (PDSS 6000-Hamamatsu) for 30 sec. Results are expressed as Relative Light Units (RLU). Controls include cells not expressing CCR5 in order to exclude possible non-specific effects of the test compound.
An agonist response is defined as an increase of light emission by aequorin corresponding to 10% or more of the light emitted by a reference sample of cells expressing CCR5 and treated with a the reference agonist ligand MIP-1β. The results of the tested compounds are reported as the concentration of compound required to reach 50% (EC50) of the maximum level of light emission induced by these compounds.

[4] = system: recombinant and non-replicative HIV virus coding for the firefly luciferase; assay: Inhibitory effect on HIV infection to MAGI-CCR5 cells (HIV-luciferase assay); type: cell-based; settings: 10 μM of the compound; MAGI R5 cells (footnote b)
[5] = Human immunodeficiency virus 1, MAGI-CCR5, read-out: HIV-luciferase assay IC50
[6] = membranes of CHO cells expressing human CCR5, 0.05 nM 125I-MIP-1β, read-out: 125I-MIP-1β binding assay IC50

T1 sequence (P51681 whole entry): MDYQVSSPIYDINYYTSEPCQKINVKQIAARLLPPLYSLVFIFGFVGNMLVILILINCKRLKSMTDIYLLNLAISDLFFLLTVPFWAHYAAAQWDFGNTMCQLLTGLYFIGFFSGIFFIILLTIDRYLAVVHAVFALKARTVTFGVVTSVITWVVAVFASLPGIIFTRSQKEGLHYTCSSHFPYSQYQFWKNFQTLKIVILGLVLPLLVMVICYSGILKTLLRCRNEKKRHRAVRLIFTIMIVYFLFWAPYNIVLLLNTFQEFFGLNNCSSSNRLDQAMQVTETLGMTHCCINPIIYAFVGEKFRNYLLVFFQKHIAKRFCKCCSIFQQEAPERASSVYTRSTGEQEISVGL

Compound	IC50 [1, 5] [nM]	IC50 (CCR5 receptor [2]; [6]) [nM]	EC50 (CCR5 receptor [3]) [nM]	level of inhibition of luciferase activity compared to the inhibition induced by Rantes at 100 nM [4] [%^b]	IC50 ([1]; Human immunodeficiency virus 1, MAGI, read-out: IC50 (HIV infection of MAGI R5 cells)) [nM]	level of calcium/aequorin response compared to the calcium/aequorin response of MIP-1β at 100 nM (CCR5 receptor [3]; 10 μM of the compound, activity too low for accurate EC50 calculation (footnote a))	IC50 (CCR5 receptor [2]; range over the group, read-out: IC50 (125I-MIP-1β binding), range stated in text for the listed compounds) [nM]
O=C(CC1CCN(CCN(c2ccccc2)c2ccccc2)CC1)Nc1ccc(F)cc1 [Compound 4]	2470	70.8	703				
O=C(CC1CCN(CCN(c2ccccc2)c2ccccc2)CC1)Nc1ccc(Cl)cc1 [Compound 6]	2050	116	1760				
Cc1ccc(NC(=O)CC2CCN(CCN(c3ccccc3)c3ccccc3)CC2)cc1 [Compound 8]	2160	13.3	425				
O=C(CC1CCN(CCN(c2ccccc2)c2ccccc2)CC1)NCc1ccc(Cl)cc1 [Compound 15]	1440	106	4410				
COc1ccc(CNC(=O)CC2CCN(CCN(c3ccccc3)c3ccccc3)CC2)cc1 [Compound 16]		143	764	79.6			
O=C(CC1CCN(CCN(c2ccccc2)c2ccccc2)CC1)NC1CCCCC1 [Compound 17]		134	438	55.8			
CCCCc1ccc(NC(=O)CC2CCN(CCN(c3ccccc3)c3ccccc3)CC2)cc1 [Compound 27]		167	2330	31.5			
O=C(CC1CCN(CCN(c2ccccc2)c2ccccc2)CC1)NCc1ccccc1 [Compound 50]	1600	436			1600	+9.5%^a	
Cc1cc(NC(=O)CC2CCN([C@H](C)CN(c3ccccc3)S(=O)(=O)CC3CCC(F)(F)CC3)CC2)[nH]n1 [Compound 55]							13.3 to 436
COc1ccc(NC(=O)CC2CCN(CC[C@H](NC(=O)C3CCC(F)(F)CC3)c3ccccc3)CC2)cc1 [Compound 69]	2.7		36.4				
COc1ccc(NC(=O)CC2CCN([C@H](C)CN(c3ccccc3)S(=O)(=O)Cc3ccccc3)CC2)cc1 [Compound 96]	3.9	0.4	70.6				
C[C@H](CN(c1ccccc1)S(=O)(=O)Cc1ccccc1)N1CCC(CC(=O)Nc2ccc(F)cc2F)CC1 [Compound 98]	3.6	0.4	60.5				
